In PubChem BioAssay (NCI):
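A five-concentration, 48-hour dose response in 96-well plates underlies each endpoint, interpolated linearly between surrounding concentrations. The concentration for 50% growth inhibition is given as GI50. TGI marks complete inhibition of growth.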

Legend:
Experiment in all cases: NCI anticancer screen, dose series, 48 h
NCI/ADR-RES ovarian = system: NCI/ADR-RES ovarian
HS 578T breast = system: HS 578T breast
SN12C renal = system: SN12C renal
OVCAR-5 ovarian = system: OVCAR-5 ovarian
RXF 393 renal = system: RXF 393 renal
SK-MEL-5 melanoma = system: SK-MEL-5 melanoma
SF-268 CNS = system: SF-268 CNS
SF-295 CNS = system: SF-295 CNS
HOP-92 NSCLC = system: HOP-92 NSCLC
T-47D breast = system: T-47D breast
NCI-H23 lung = system: NCI-H23 lung
ACHN renal = system: ACHN renal
U251 CNS = system: U251 CNS
SK-MEL-2 melanoma = system: SK-MEL-2 melanoma
COLO 205 colon = system: COLO 205 colon
OVCAR-3 ovarian = system: OVCAR-3 ovarian
IGROV1 ovarian = system: IGROV1 ovarian
MALME-3M melanoma = system: MALME-3M melanoma
SK-MEL-28 melanoma = system: SK-MEL-28 melanoma
MCF7 breast = system: MCF7 breast
HOP-62 NSCLC = system: HOP-62 NSCLC
NCI-H226 lung = system: NCI-H226 lung
EKVX NSCLC = system: EKVX NSCLC
SNB-75 CNS = system: SNB-75 CNS
A549 NSCLC = system: A549 NSCLC
SW-620 colon = system: SW-620 colon
UACC-257 melanoma = system: UACC-257 melanoma
DU-145 prostate = system: DU-145 prostate
HCT-116 colon = system: HCT-116 colon
NCI-H460 lung = system: NCI-H460 lung
RPMI-8226 leukemia = system: RPMI-8226 leukemia
OVCAR-8 ovarian = system: OVCAR-8 ovarian
HL-60(TB) leukemia = system: HL-60(TB) leukemia
MDA-MB-231 breast = system: MDA-MB-231 breast
LOX IMVI melanoma = system: LOX IMVI melanoma
UO-31 renal = system: UO-31 renal
MOLT-4 leukemia = system: MOLT-4 leukemia
NCI-H522 lung = system: NCI-H522 lung
HCT-15 colon = system: HCT-15 colon
786-0 renal = system: 786-0 renal
KM12 colon = system: KM12 colon
CAKI-1 renal = system: CAKI-1 renal
OVCAR-4 ovarian = system: OVCAR-4 ovarian
MDA-MB-435 = system: MDA-MB-435
HCC-2998 colon = system: HCC-2998 colon
UACC-62 melanoma = system: UACC-62 melanoma
BT-549 breast = system: BT-549 breast
K-562 leukemia = system: K-562 leukemia
HT29 colon = system: HT29 colon
TK-10 renal = system: TK-10 renal
SF-539 CNS = system: SF-539 CNS
PC-3 prostate = system: PC-3 prostate
SNB-19 CNS = system: SNB-19 CNS
SK-OV-3 ovarian = system: SK-OV-3 ovarian
CCRF-CEM leukemia = system: CCRF-CEM leukemia

O=C(CCSc1ccnc2c(C(F)(F)F)cccc12)N/N=C/c1cc(Cl)c(Cl)cc1Cl
GI50 (NCI/ADR-RES ovarian): 23 µM
TGI (NCI/ADR-RES ovarian): 49.7 µM
GI50 (HS 578T breast): 23.9 µM
TGI (HS 578T breast): 49.8 µM
GI50 (SN12C renal): 18 µM
TGI (SN12C renal): 34.1 µM
GI50 (OVCAR-5 ovarian): 26.1 µM
TGI (OVCAR-5 ovarian): 64.6 µM
GI50 (RXF 393 renal): 20.9 µM
TGI (RXF 393 renal): 52.3 µM
GI50 (SK-MEL-5 melanoma): 19.3 µM
TGI (SK-MEL-5 melanoma): 34.9 µM
GI50 (SF-268 CNS): 23.2 µM
TGI (SF-268 CNS): 50.3 µM
GI50 (SF-295 CNS): 26.4 µM
TGI (SF-295 CNS): 62.3 µM
GI50 (HOP-92 NSCLC): 16.3 µM
TGI (HOP-92 NSCLC): 34.3 µM
GI50 (T-47D breast): 22 µM
TGI (T-47D breast): 59.9 µM
GI50 (NCI-H23 lung): 24.1 µM
TGI (NCI-H23 lung): 52.1 µM
GI50 (ACHN renal): 19.7 µM
TGI (ACHN renal): 35.5 µM
GI50 (U251 CNS): 18.4 µM
TGI (U251 CNS): 32.4 µM
GI50 (SK-MEL-2 melanoma): 50.5 µM
TGI (SK-MEL-2 melanoma): > 100 µM
GI50 (COLO 205 colon): 24.6 µM
TGI (COLO 205 colon): 67.7 µM
GI50 (OVCAR-3 ovarian): 20 µM
TGI (OVCAR-3 ovarian): 44.5 µM
GI50 (IGROV1 ovarian): 18.8 µM
TGI (IGROV1 ovarian): 40.7 µM
GI50 (MALME-3M melanoma): 50.1 µM
TGI (MALME-3M melanoma): > 100 µM
GI50 (SK-MEL-28 melanoma): 17 µM
TGI (SK-MEL-28 melanoma): 32.5 µM
GI50 (MCF7 breast): 22.9 µM
TGI (MCF7 breast): 44 µM
GI50 (HOP-62 NSCLC): 19.8 µM
TGI (HOP-62 NSCLC): 35.8 µM
GI50 (NCI-H226 lung): 17.6 µM
TGI (NCI-H226 lung): 39.3 µM
GI50 (EKVX NSCLC): 38.1 µM
TGI (EKVX NSCLC): > 100 µM
GI50 (SNB-75 CNS): 20 µM
TGI (SNB-75 CNS): 46.1 µM
GI50 (A549 NSCLC): 24.8 µM
TGI (A549 NSCLC): 53.5 µM
GI50 (SW-620 colon): 23.8 µM
TGI (SW-620 colon): 43.4 µM
GI50 (UACC-257 melanoma): 83.5 µM
TGI (UACC-257 melanoma): > 100 µM
GI50 (DU-145 prostate): 18.2 µM
TGI (DU-145 prostate): 40 µM
GI50 (HCT-116 colon): 18.5 µM
TGI (HCT-116 colon): 32.5 µM
GI50 (NCI-H460 lung): 25.4 µM
TGI (NCI-H460 lung): 54.5 µM
GI50 (RPMI-8226 leukemia): 19 µM
TGI (RPMI-8226 leukemia): 52.7 µM
GI50 (OVCAR-8 ovarian): 32.5 µM
TGI (OVCAR-8 ovarian): 86 µM
GI50 (HL-60(TB) leukemia): 32.2 µM
TGI (HL-60(TB) leukemia): 58 µM
GI50 (MDA-MB-231 breast): 16.8 µM
TGI (MDA-MB-231 breast): 32.6 µM
GI50 (LOX IMVI melanoma): 17.8 µM
TGI (LOX IMVI melanoma): 31.8 µM
GI50 (UO-31 renal): 20.6 µM
TGI (UO-31 renal): 49.2 µM
GI50 (MOLT-4 leukemia): 32.2 µM
TGI (MOLT-4 leukemia): 98.8 µM
GI50 (NCI-H522 lung): 31.6 µM
TGI (NCI-H522 lung): > 100 µM
GI50 (HCT-15 colon): 20 µM
TGI (HCT-15 colon): 36.5 µM
GI50 (786-0 renal): 20.3 µM
TGI (786-0 renal): 35.1 µM
GI50 (KM12 colon): 29.7 µM
TGI (KM12 colon): 77.9 µM
GI50 (CAKI-1 renal): 21.4 µM
TGI (CAKI-1 renal): 43.4 µM
GI50 (OVCAR-4 ovarian): 25.4 µM
TGI (OVCAR-4 ovarian): 64.2 µM
GI50 (MDA-MB-435): 27.3 µM
TGI (MDA-MB-435): 75.4 µM
GI50 (HCC-2998 colon): 34.6 µM
TGI (HCC-2998 colon): > 100 µM
GI50 (UACC-62 melanoma): 15.4 µM
TGI (UACC-62 melanoma): 39.7 µM
GI50 (BT-549 breast): 18 µM
TGI (BT-549 breast): 38.9 µM
GI50 (K-562 leukemia): 39.6 µM
TGI (K-562 leukemia): > 100 µM
GI50 (HT29 colon): 17.8 µM
TGI (HT29 colon): 33.9 µM
GI50 (TK-10 renal): 33.6 µM
TGI (TK-10 renal): 72.4 µM
GI50 (SF-539 CNS): 18 µM
TGI (SF-539 CNS): 35.4 µM
GI50 (PC-3 prostate): 18 µM
TGI (PC-3 prostate): 36.7 µM
GI50 (SNB-19 CNS): 21.9 µM
TGI (SNB-19 CNS): 48.5 µM
GI50 (SK-OV-3 ovarian): 23.7 µM
TGI (SK-OV-3 ovarian): 54.7 µM
GI50 (CCRF-CEM leukemia): 25.4 µM
TGI (CCRF-CEM leukemia): 62.1 µM
